Each structure is given as a SMILES string.

The test system of the first assay is Utrophin A promoter linked to a luciferase reporter gene. In words: Luciferase reporter assay (murine H2K cells). The conditions noted are these: Mus musculus, H2K mdx, luciferase level relative to control; H2K/mdx/Utro A reporter cells; compound 10 μM final concentration; read-out: Activity. It is filed as cell-based. In short, it runs like this: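 Compound at 10 μM final was applied for 48 hrs to plated H2K mdx myoblasts (33° C, 10% CO2, interferon-containing medium) bearing a luciferase gene under the utrophin A promoter. Luminescence from lysed cells served as read-out.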
On the technique in general: In a reporter assay the amount or activity of a reporter protein is the signal.
As to `CCS(=O)(=O)c1ccc2oc(-c3ccc4ccccc4c3)nc2c1` [Example 390, 5-(ethylsulfonyl)-2-(naphthalen-2-yl)benzo[d]oxazole], the activity at 10 µM is 301 to 400%.
On the same count and under the same terms, for `CC(C)C(=O)Nc1ccc2oc(-c3cccc(N(C)C)c3)nc2c1` [Example 204, N-(2-(3-(dimethylamino)phenyl)benzo[d]oxazol-5-yl)isobutyramide] the value was over 401%.
On the same count and under the same terms, under `CCCCc1ccc(-c2nc3ccc([N+](=O)[O-])cc3o2)nc1` [Example 262, 2-(5-butylpyridin-2-yl)-6-nitrobenzo[d]oxazole] stands 201 to 300%; under `Cc1cc(-c2nc3ccccc3[nH]2)ccc1[N+](=O)[O-]` [Example 105, 2-(3-methyl-4-nitrophenyl)-1H-benzo[d]imidazole], over 401%.
Same read-out and setting: under `CCOC(=O)Nc1ccc2oc(-c3ccc(Cl)cc3)nc2c1` [Example 386, ethyl 2-(4-chlorophenyl)benzo[d]oxazol-5-ylcarbamate] stands under 200%; under `Cc1ccc(-c2nc3cc(NS(=O)(=O)C(C)C)ccc3o2)cc1` [Example 259, N-(2-p-tolylbenzo[d]oxazol-5-yl)propane-2-sulfonamide], under 200%.
As to `COc1ccc(C(=O)Nc2ccc3oc(-c4ccc(OC)cc4)nc3c2)cc1` [Example 83, 4-methoxy-N-(2-(4-methoxyphenyl)benzo[d]oxazol-5-yl)benzamide], the activity at 10 µM is under 200%.
Still for that read-out and setting: for `CCCCC(=O)Nc1ccc2oc(-c3ccc(N(CC)CC)cc3)nc2c1` [Example 77, N-(2-(4-(diethylamino)phenyl)benzo[d]oxazol-5-yl)pentanamide] the value was 201 to 300%; for `CC(C)C(=O)Nc1ccc(-c2nc3c(ccc4ccccc43)o2)cc1` [Example 442, N-(4-(naphtho[1,2-d]oxazol-2-yl)phenyl)isobutyramide], 301 to 400%; for `Nc1ccc(-c2nc3cc(Cl)ccc3o2)cc1` [Example 289, 4-(5-chlorobenzo[d]oxazol-2-yl)aniline], over 401%.
The same measure, in the same setting: under `CCCS(=O)(=O)Nc1ccc2oc(-c3ccccc3)nc2c1` [Example 193, N-(2-phenylbenzo[d]oxazol-5-yl)propane-1-sulfonamide] stands 201 to 300%; under `COc1ccc(-c2nc3cc(NC(C)=O)ccc3o2)cc1` [Example 135, N-(2-(4-methoxyphenyl)benzo[d]oxazol-5-yl)acetamide], 301 to 400%.
For `CCCC(=O)Nc1ccc2oc(-c3cccc(Cl)c3)nc2c1` [Example 239, N-(2-(3-chlorophenyl)benzo[d]oxazol-5-yl)butyramide], the activity at 10 µM is under 200%.
On the same count and under the same terms, for `CC(C)C(=S)Nc1ccc2oc(-c3ccc(Cl)cc3)nc2c1` [Example 275, N-(2-(4-chlorophenyl)benzo[d]oxazol-5-yl)-2-methylpropanethioamide] the value was 201 to 300%.
As for `CC(C)C(=O)Nc1ccc2oc(-c3ccco3)nc2c1` [Example 419, N-(2-(furan-2-yl)benzo[d]oxazol-5-yl)isobutyramide], the activity at 10 µM is over 401%.
On to `CCCCNC(=O)c1ccc2oc(-c3ccc(C)cc3)nc2c1` [Example 176, N-butyl-2-p-tolylbenzo[d]oxazole-5-carboxamide], for which the activity at 10 µM is 201 to 300%.
Consider `Nc1ccc2oc(SCc3ccc(Cl)cc3)nc2c1` [Example 380, 2-(4-chlorobenzylthio)benzo[d]oxazol-5-amine], for which the activity at 10 µM is under 200%.
Consider `CCN(CC)c1ccc(-c2nc3cc(NC(=O)c4cccnc4)ccc3o2)cc1` [Example 60, N-(2-(4-(diethylamino)phenyl)benzo[d]oxazol-5-yl)nicotinamide], for which the activity at 10 µM fell in the range of 201 to 300%.
On to `CC(C)C(=O)Nc1ccc2oc(SCc3ccc(Cl)cc3)nc2c1` [Example 383, N-(2-(4-chlorobenzylthio)benzo[d]oxazol-5-yl)isobutyramide], for which the activity at 10 µM is under 200%.
Still for that read-out and setting: for `CC(C)C(=O)N(C)c1ccc2oc(-c3ccc(Cl)cc3)nc2c1` [Example 320, N-(2-(4-chlorophenyl)benzo[d]oxazol-5-yl)-N-methylisobutyramide] the value was 201 to 300%; for `Cc1ccc(C(=O)Nc2ccc3oc(-c4cccnc4)nc3c2)cc1` [Example 41, 4-methyl-N-(2-(pyridin-3-yl)benzo[d]oxazol-5-yl)benzamide], under 200%; for `Nc1ccc(-c2ccc3oc(-c4ccc(Cl)cc4)nc3c2)cc1` [Example 329, 4-(2-(4-chlorophenyl)benzo[d]oxazol-5-yl)aniline], over 401%.
The same measure, in the same setting: under `O=C(CC(F)(F)F)Nc1ccc2oc(-c3ccc(Cl)c(Cl)c3)nc2c1` [Example 352, N-(2-(3,4-dichlorophenyl)benzo[d]oxazol-5-yl)-3,3,3-trifluoropropanamide] stands over 401%; under `CCN(CC)c1ccc(-c2nc3cc(NC(=O)c4ccc(C)cc4)ccc3o2)cc1` [Example 64, N-(2-(4-(diethylamino)phenyl)benzo[d]oxazol-5-yl)-4-methylbenzamide], under 200%.
Take `Cn1c(COc2ccc(Cl)cc2)nc2ccccc21` [Example 3, 2-((4-chlorophenoxy)methyl)-1-methyl-1H-benzo[d]imidazole]: the activity at 10 µM was in the range of 301 to 400%.
Consider `COCCC(=O)Nc1ccc2oc(-c3ccc(Cl)cc3)nc2c1` [Example 323, N-(2-(4-chlorophenyl)benzo[d]oxazol-5-yl)-3-methoxypropanamide], for which the activity at 10 µM was over 401%.
Same read-out and setting: under `COc1ccc(-c2ccc3oc(-c4ccc(C)cc4)nc3c2)cc1` [Example 199, 5-(4-methoxyphenyl)-2-p-tolylbenzo[d]oxazole] stands under 200%; under `Nc1ccc2oc(-c3ccc4c(c3)OCO4)nc2c1` [Example 299, 2-(benzo[d][1,3]dioxol-5-yl)benzo[d]oxazol-5-amine], 201 to 300%.
`CCS(=O)(=O)c1ccc2oc(-c3cccc(Cl)c3Cl)nc2c1` [Example 304, 2-(2,3-diChlorophenyl)-5-(ethylsulfonyl)benzo[d]oxazole]: the activity at 10 µM is under 200%.

Staying with this assay, now noted: luciferase level relative to control; H2K/mdx/Utro A reporter cells; compound 10 μM final concentration.
As for `Clc1ccc(-c2nc3cc4c(cc3o2)OCO4)cc1Cl` [Example 361, 2-(3,4-chlorophenyl)-5,6-methylenedioxybenzoxazole], the Activity entry was “+ (Up to 200% relative to control)”.

The same assay, now with this note: luciferase reporter assay in murine H2K cells; classified relative to control.
As for `COc1ccc(-c2nc3ccccc3o2)cc1N` [Example 619], the Activity entry is “++++ (Above 401% relative to control)”.
Still for that read-out and setting: for `Cn1c(CNc2ccc(Cl)cc2)nc2ccccc21` [Example 666] the value was “++ (Between 201% and 300% relative to control)”; for `Cc1ccc2[nH]c(-c3ccc(NC(=O)c4ccco4)cc3)nc2c1` [Example 580], “+++ (Between 301% and 400% relative to control)”; for `Clc1ccc(OCc2nc3ccccc3n2Cc2ccccc2Cl)c(Cl)c1` [Example 465], “+ (Up to 200% relative to control)”.
For the molecule `CCc1ccc(-c2nc3cc(N)ccc3o2)cc1` [Example 481], the Activity entry is “++ (Between 201% and 300% relative to control)”.
The same measure, in the same setting: for `COc1ccc(-c2nc3cc(N)ccc3[nH]2)cc1` [Example 535] the value was “++ (Between 201% and 300% relative to control)”; for `Cc1ccc(-c2nc3cc(N)ccc3o2)cc1Cl` [Example 526], “++ (Between 201% and 300% relative to control)”.
On the same count and under the same terms, under `Cc1cc(-c2nc3cc(N)ccc3o2)ccc1Br` [Example 649] stands “+++ (Between 301% and 400% relative to control)”; under `O=C(Nc1ccc(-c2nc3ncccc3o2)cc1)c1ccccc1Cl` [Example 641], “+++ (Between 301% and 400% relative to control)”; under `Cc1nc(Nc2nc3ccccc3o2)nc2c1CCC2` [Example 678], “++ (Between 201% and 300% relative to control)”.
The same measure, in the same setting: for `c1ccc(-c2ccc(-c3nc4ccccc4[nH]3)cc2)cc1` [Example 558] the value was “+ (Up to 200% relative to control)”; for `CCNC(=O)Nc1ccc2[nH]c(C(C)(C)C)cc2c1` [Example 576], “+ (Up to 200% relative to control)”; for `c1ccc(-c2nnc(SCc3nc4ccccc4[nH]3)o2)cc1` [Example 530], “+ (Up to 200% relative to control)”.
`c1csc(-c2nc3ccccc3[nH]2)c1` [Example 463]: the Activity result is “+ (Up to 200% relative to control)”.
On the same count and under the same terms, under `Cc1ccc2nc(-c3ccc(NC(=O)c4cccnc4)cc3)sc2c1` [Example 638] stands “+++ (Between 301% and 400% relative to control)”.
Still for that read-out and setting: for `Cc1ccnc(Nc2nc3ccccc3o2)n1` [Example 682] the value was “++ (Between 201% and 300% relative to control)”; for `O=C(Nc1nc2ccc(F)cc2s1)c1cccs1` [Example 658], “+++ (Between 301% and 400% relative to control)”.

A further assay concerns mdx mice. Nature of the assay: Forced exercise treadmill test: fatigue in mdx mice. It is filed as in vivo, mdx mouse. The conditions noted are these: 50 mg/kg ip daily for 5 weeks in combination with prednisolone, FIG. 4. The method, then:
The effect of combinations of a compound of formula (1) with a corticosteroid (prednisolone) was examined by measuring fatigue induced by a forced exercise regime in mdx mice. Four to five week-old male mdx mice were forced to exercise (30 min running on horizontal treadmill at 12 m/min twice a week on the same day and at the same time) over a five week treatment course. Each treatment group included 6 mice. At the end of the treatment course, exhaustion was induced by running on a horizontal treadmill at 5 m/min for 5 min, with incremental speed increases of 1 m/min each minute until exhaustion. The total distance run was then measured. […] Sedentary and vehicle only groups acted as negative controls.
`C[C@]12C=CC(=O)C=C1CC[C@@H]1[C@@H]2[C@@H](O)C[C@@]2(C)[C@H]1CC[C@]2(O)C(=O)CO` [PDN, prednisolone, reference compound]: the “exercise-induced fatigue (total distance run to exhaustion)” value was “act in synergy to reduce exercise-induced fatigue”.
Same read-out and setting: for `CCS(=O)(=O)c1ccc2oc(-c3ccc4ccccc4c3)nc2c1` [Example 390, 5-(ethylsulfonyl)-2-(naphthalen-2-yl)benzo[d]oxazole] the value was “act in synergy to reduce exercise-induced fatigue”.

Source of the values: patent publication US8501713B2, “Drug combinations for the treatment of duchenne muscular dystrophy” (Summit Corporation PLC, priority 2007, dated 2013).
